Results on 4 compounds are retold here after ChEMBL document CHEMBL3351686, “Facile and diastereoselective synthesis of 3,2'-spiropyrrolidine-oxindoles derivatives, their molecular docking and antiproliferative activities” (2015).

SMILES strings stand for the structures. Values after ≈ are worked out from the molar mass of the structure shown.

The test system of test [1] is Salmonella typhimurium. Kind of test: Antibacterial activity against Salmonella typhimurium MTCC 1251 assessed as zone of inhibition at 1 mg/disc after 24 hrs by disc diffusion method. The class given is functional, Salmonella enterica subsp. enterica serovar Typhimurium. On the technique in general: Agar diffusion results depend on both activity and mobility in agar.

The test system of test [2] is Klebsiella pneumoniae. Kind of test: Antibacterial activity against Klebsiella pneumoniae MTCC 109 assessed as zone of inhibition at 1 mg/disc after 24 hrs by disc diffusion method. The class given is functional.
The subject of test [3] is Proteus vulgaris. Briefly: Antibacterial activity against Proteus vulgaris MTCC 1771 assessed as zone of inhibition at 1 mg/disc after 24 hrs by disc diffusion method. The class given is functional.
Test [4] concerns Shigella flexneri. Briefly: Antibacterial activity against Shigella flexneri MTCC 1457 assessed as zone of inhibition at 1 mg/disc after 24 hrs by disc diffusion method. The class given is functional.
Test [5] has as its system Micrococcus luteus. Kind of test: Antibacterial activity against Micrococcus luteus MTCC 106 assessed as zone of inhibition at 1 mg/disc after 24 hrs by disc diffusion method. The class given is functional.
Test [6] relates to Klebsiella aerogenes. Briefly: Antibacterial activity against Enterobacter aerogenes MTCC 111 assessed as zone of inhibition at 1 mg/disc after 24 hrs by disc diffusion method. The class given is functional.
The test system of test [7] is Staphylococcus epidermidis. Kind of test: Antibacterial activity against Staphylococcus epidermidis MTCC 3615 assessed as zone of inhibition at 1 mg/disc after 24 hrs by disc diffusion method. The class given is functional.
The subject of test [8] is Staphylococcus aureus. Briefly: Antibacterial activity against Staphylococcus aureus MTCC 96 assessed as zone of inhibition at 1 mg/disc after 24 hrs by disc diffusion method. It counts as functional.
In test [9] the test system is Staphylococcus aureus. Briefly: Antibacterial activity against methicillin-resistant Staphylococcus aureus assessed as zone of inhibition at 1 mg/disc after 24 hrs by disc diffusion method. It counts as functional.
Test [10] has as its system Candida albicans. Kind of test: Antifungal activity against Candida albicans MTCC 227 assessed as zone of inhibition at 1 mg/disc after 48 hrs by disc diffusion method. It counts as functional.
In test [11] the test system is Malassezia pachydermatis. Briefly: Antifungal activity against Malassezia pachydermatis assessed as zone of inhibition at 1 mg/disc after 48 hrs by disc diffusion method. The class given is functional.
In test [12] the test system is Salmonella typhimurium. Briefly: Antibacterial activity against Salmonella typhimurium MTCC 1251 assessed as inhibition of visual growth after 24 hrs. The class given is functional, Salmonella enterica subsp. enterica serovar Typhimurium. The conditions noted are these: Salmonella enterica, MTCC 1251, 24 h.
Test [13] relates to Klebsiella pneumoniae. Kind of test: Antibacterial activity against Klebsiella pneumoniae MTCC 109 assessed as inhibition of visual growth after 24 hrs. The class given is functional. The conditions noted are these: MTCC 109, 24 h.
Test [14] has as its system Proteus vulgaris. Kind of test: Antibacterial activity against Proteus vulgaris MTCC 1771 assessed as inhibition of visual growth after 24 hrs. The class given is functional. The conditions noted are these: MTCC 1771, 24 h.
Test [15] relates to Shigella flexneri. Kind of test: Antibacterial activity against Shigella flexneri MTCC 1457 assessed as inhibition of visual growth after 24 hrs. The class given is functional. The conditions noted are these: MTCC 1457, 24 h.
Test [16] has as its system Micrococcus luteus. Kind of test: Antibacterial activity against Micrococcus luteus MTCC 106 assessed as inhibition of visual growth after 24 hrs. The conditions noted are these: MTCC 106, 24 h. The class given is functional.
In test [17] the test system is Klebsiella aerogenes. Kind of test: Antibacterial activity against Enterobacter aerogenes MTCC 111 assessed as inhibition of visual growth after 24 hrs. It counts as functional. The conditions noted are these: MTCC 111, 24 h.
Test [18] deals with Staphylococcus epidermidis. Kind of test: Antibacterial activity against Staphylococcus epidermidis MTCC 3615 assessed as inhibition of visual growth after 24 hrs. It counts as functional. The conditions noted are these: MTCC 3615, 24 h.
The subject of test [19] is Staphylococcus aureus. Briefly: Antibacterial activity against Staphylococcus aureus MTCC 96 assessed as inhibition of visual growth after 24 hrs. It counts as functional. The conditions noted are these: MTCC 96, 24 h.
The test system of test [20] is Staphylococcus aureus. Kind of test: Antibacterial activity against methicillin-resistant Staphylococcus aureus assessed as inhibition of visual growth after 24 hrs. The class given is functional.
The test system of test [21] is Candida albicans. Briefly: Antifungal activity against Candida albicans MTCC 227 assessed as inhibition of visual growth after 48 to 72 hrs. The class given is functional.
Test [22] has as its system Malassezia pachydermatis. Briefly: Antifungal activity against Malassezia pachydermatis assessed as inhibition of visual growth after 48 to 72 hrs. The class given is functional.

In general, MIC refers to the smallest concentration in the dilution series that meets the test's criterion for growth inhibition. On to `N#C[C@]1(C(=O)c2c[nH]c3ccccc23)C2CCCN2[C@]2(C(=O)Nc3ccccc32)[C@@H]1c1cn(-c2ccccc2)nc1-c1ccccc1` (stereo partly specified), for which the “inhibition zone (IZ)” value came to 8 mm in the test on Salmonella typhimurium [1]; 9 mm in the test with Klebsiella pneumoniae [2]; 12 mm with Proteus vulgaris [3]; 10 mm in the test with Shigella flexneri [4]; 11 mm with Micrococcus luteus [5]; 12 mm in the test on Klebsiella aerogenes [6]. Moreover, the “inhibition zone (IZ)” value in test [7] was 13 mm; in the test with Staphylococcus aureus [8], 12 mm; with Staphylococcus aureus [9], 10 mm; with Candida albicans [10], 10 mm; with Malassezia pachydermatis [11], 8 mm. Also, the MIC in the test on Salmonella typhimurium [12] was 250 µg/mL (≈ 407 µM); in the test on Klebsiella pneumoniae [13], 31.2 µg/mL (≈ 50.8 µM); with Proteus vulgaris [14], 125 µg/mL (≈ 203 µM); with Shigella flexneri [15], 31.2 µg/mL (≈ 50.8 µM); in the test with Micrococcus luteus [16] it was 31.2 µg/mL (≈ 50.8 µM); in the test on Klebsiella aerogenes [17], 62.5 µg/mL (≈ 102 µM). Besides, the MIC stood at 62.5 µg/mL (≈ 102 µM) in [18]; 31.2 µg/mL (≈ 50.8 µM) in the test on Staphylococcus aureus [19]; 31.2 µg/mL (≈ 50.8 µM) with Staphylococcus aureus [20]; 125 µg/mL (≈ 203 µM) in the test on Candida albicans [21]; 500 µg/mL (≈ 813 µM) in the test on Malassezia pachydermatis [22].

Take `N#C[C@]1(C(=O)c2c[nH]c3ccccc23)C2CCCN2[C@]2(C(=O)Nc3ccc([N+](=O)[O-])cc32)[C@@H]1c1cn(-c2ccccc2)nc1-c1ccccc1` (stereo partly specified): the “inhibition zone (IZ)” value is given as 9 mm in the test on Salmonella typhimurium [1]; 9 mm in the test on Klebsiella pneumoniae [2]; 9 mm in the test on Proteus vulgaris [3]; 8 mm in the test on Shigella flexneri [4]; 8 mm with Micrococcus luteus [5]; 10 mm in the test on Klebsiella aerogenes [6]. For the same compound, the “inhibition zone (IZ)” value was determined as 12 mm in test [7], 11 mm with Staphylococcus aureus [8], 9 mm with Staphylococcus aureus [9] and 11 mm in the test with Candida albicans [10]. The MIC in the test with Salmonella typhimurium [12] came out at 250 µg/mL (≈ 379 µM); in the test with Klebsiella pneumoniae [13], 250 µg/mL (≈ 379 µM); in the test with Proteus vulgaris [14] it was 125 µg/mL (≈ 189 µM); in the test on Shigella flexneri [15] it was 500 µg/mL (≈ 758 µM); with Micrococcus luteus [16] it was 500 µg/mL (≈ 758 µM); in the test with Klebsiella aerogenes [17], 250 µg/mL (≈ 379 µM). Further, the minimal inhibitory concentration (MIC) stood at 250 µg/mL (≈ 379 µM) in test [18]; 125 µg/mL (≈ 189 µM) in the test on Staphylococcus aureus [19]; 500 µg/mL (≈ 758 µM) with Staphylococcus aureus [20]; 250 µg/mL (≈ 379 µM) with Candida albicans [21]; 500 µg/mL (≈ 758 µM) in the test with Malassezia pachydermatis [22].

Regarding `N#C[C@]1(C(=O)c2c[nH]c3ccccc23)C2CSCN2[C@]2(C(=O)Nc3ccccc32)[C@@H]1c1cn(-c2ccccc2)nc1-c1ccccc1` (stereo partly specified), the “inhibition zone (IZ)” value in the test on Salmonella typhimurium [1] was 11 mm; with Klebsiella pneumoniae [2] it was 10 mm; in the test on Proteus vulgaris [3], 10 mm; in the test on Shigella flexneri [4], 8 mm; in the test on Micrococcus luteus [5], 11 mm; with Klebsiella aerogenes [6], 13 mm. In addition, the “inhibition zone (IZ)” value in test [7] turned out to be 13 mm; with Staphylococcus aureus [8], 14 mm; with Staphylococcus aureus [9], 8 mm; in the test with Candida albicans [10] it was 9 mm; in the test with Malassezia pachydermatis [11], 8 mm. Besides, the MIC in the test with Salmonella typhimurium [12], in the test on Klebsiella pneumoniae [13], with Proteus vulgaris [14], with Shigella flexneri [15], in the test with Micrococcus luteus [16] and with Klebsiella aerogenes [17] was 500 µg/mL (≈ 790 µM) in each case. Besides, the minimal inhibitory concentration (MIC) in test [18] came out at 500 µg/mL (≈ 790 µM); in the test with Staphylococcus aureus [19], 500 µg/mL (≈ 790 µM); in the test with Staphylococcus aureus [20] it was 500 µg/mL (≈ 790 µM); with Candida albicans [21], 1250 µg/mL (≈ 1980 µM); in the test with Malassezia pachydermatis [22], 250 µg/mL (≈ 395 µM).

Consider `CC(=O)N1CCN(c2ccc(OCC3COC(Cn4ccnc4)(c4ccc(Cl)cc4Cl)O3)cc2)CC1` (stereo unspecified) [KETOCONAZOLE], for which the “inhibition zone (IZ)” value in the test with Salmonella typhimurium [1] was 18 mm; in the test with Klebsiella pneumoniae [2] it was 20 mm; in the test with Proteus vulgaris [3], 30 mm; in the test on Shigella flexneri [4], 30 mm; in the test on Micrococcus luteus [5], 26 mm; in the test on Klebsiella aerogenes [6], 22 mm. The “inhibition zone (IZ)” value in [7] is on record as 14 mm; in the test on Staphylococcus aureus [8] it was 14 mm; with Staphylococcus aureus [9], 30 mm; with Candida albicans [10] it was 28 mm; in the test on Malassezia pachydermatis [11] it was 26 mm. The minimum inhibitory concentration (MIC) was determined as 30 µg/mL (≈ 56.5 µM) in the test on Salmonella typhimurium [12]; 6.25 µg/mL (≈ 11.8 µM) in the test with Klebsiella pneumoniae [13]; 6.25 µg/mL (≈ 11.8 µM) in the test on Shigella flexneri [15]; 6.25 µg/mL (≈ 11.8 µM) in the test with Micrococcus luteus [16]; 25 µg/mL (≈ 47 µM) in the test with Klebsiella aerogenes [17]; 6.25 µg/mL (≈ 11.8 µM) in [18]. Also, the MIC in the test with Staphylococcus aureus [19] was 6.25 µg/mL (≈ 11.8 µM); in the test on Staphylococcus aureus [20], 6.25 µg/mL (≈ 11.8 µM); in the test on Candida albicans [21], 25 µg/mL (≈ 47 µM); in the test on Malassezia pachydermatis [22], 25 µg/mL (≈ 47 µM).
